Test results reported in the supplement of paper PMC10307832.

Columns and labels:
Assay in all cases: relative viability (nuclei count vs DMSO), 5 days (fraction); higher = more cells survive
[1] = compound: CC1=C(C=C(C=C1)NC(=O)C2=CC(=CC=C2)C(C)(C)C#N)NC3=CC4=C(C=C3)N=CN(C4=O)C [AZ628] + C[C@]1(O)C[C@@H](c2nc(-c3ccc4ccc(-c5ccccc5)nc4c3)c3c(N)nccn32)C1 [Linsitinib] (partner 1 µM)
Outline: (§1)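 Lung cancer cell lines were pin-tool dosed in 1536-well plates on the day after seeding, with either a lone drug or a fixed anchor-drug dose plus five library-drug doses (not always all listed) in √10 steps. Nuclei were counted on 4× images after 5 days. Relative viability is the ratio of treated-well to vehicle-well nuclei counts, with each value a median of duplicate plates.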

[2] = compound: C[As](C)SC[C@H](NC(=O)CC[C@H](N)C(=O)O)C(=O)NCC(=O)O [Darinaparsin] + CCNC(=O)c1noc(-c2cc(C(C)C)c(O)cc2O)c1-c1ccc(CN2CCOCC2)cc1 [Luminespib] (partner 0.01 µM)
Outline: as §1

[3] = compound: C[As](C)SC[C@H](NC(=O)CC[C@H](N)C(=O)O)C(=O)NCC(=O)O [Darinaparsin] + COc1cccc2cc(-c3nc([C@H]4CC[C@H](C(=O)O)CC4)n4ncnc(N)c34)[nH]c12 [OSI-027] (partner 0.5 µM)
Outline: as §1

[4] = compound: C[As](C)SC[C@H](NC(=O)CC[C@H](N)C(=O)O)C(=O)NCC(=O)O [Darinaparsin] + Nc1nc2[nH]cc(CCc3ccc(C(=O)N[C@@H](CCC(=O)O)C(=O)O)cc3)c2c(=O)[nH]1 [Pemetrexed] (partner 0.2 µM)
Outline: as §1

| Cell Line | relative viability ([1]; first compound 0.08 µM) | relative viability ([1]; first compound 0.253 µM) | relative viability ([1]; first compound 0.8 µM) | relative viability ([1]; first compound 2.53 µM) | relative viability ([1]; first compound 8 µM) | relative viability ([2]; first compound 0.08 µM) | relative viability ([2]; first compound 0.8 µM) | relative viability ([2]; first compound 2.53 µM) | relative viability ([2]; first compound 8 µM) | relative viability ([3]; first compound 0.08 µM) | relative viability ([3]; first compound 0.8 µM) | relative viability ([3]; first compound 2.53 µM) | relative viability ([3]; first compound 8 µM) | relative viability ([4]; first compound 0.08 µM) | relative viability ([4]; first compound 0.8 µM) | relative viability ([4]; first compound 2.53 µM) | relative viability ([4]; first compound 8 µM) |
| --- | --- | --- | --- | --- | --- | --- | --- | --- | --- | --- | --- | --- | --- | --- | --- | --- | --- |
| HCC-44 | 0.701 | 0.646 | 0.672 | 0.678 | 0.666 | 1.47 | 1.12 | 0.954 | 0.804 | 0.511 | 0.514 | 0.454 | 0.378 | 0.7 | 0.607 | 0.669 | 0.721 |
| EMC-BAC-2 | 0.77 | 0.723 | 0.782 | 0.744 | 0.762 | 0.763 | 1.15 | 1.16 | 1.49 | 0.364 | 0.315 | 0.405 | 0.409 | 0.452 | 0.44 | 0.53 | 0.472 |
| NCI-H2405 | 0.463 | 0.646 | 0.477 | 0.387 | 0.409 | 0.822 | 0.611 | 0.61 | 0.689 | 0.629 | 0.614 | 0.545 | 0.658 | 1.24 | 0.872 | 1.07 | 1.14 |
| NCI-H2342 | – | – | – | – | – | 0.773 | 0.8 | 0.813 | 0.826 | 0.592 | 0.593 | 0.558 | 0.654 | 0.785 | 0.782 | 0.743 | 0.841 |
| HOP-62 | 1.09 | 0.919 | 1.06 | 1.17 | 0.535 | 1.1 | 0.811 | 0.793 | 1.09 | 0.958 | 0.852 | 0.694 | 0.855 | 0.421 | 0.36 | 0.276 | 0.361 |
| NCI-H1651 | 1.16 | 1.08 | 1.12 | 1.05 | 0.989 | 0.886 | 0.831 | 0.926 | 1.16 | 0.78 | 0.753 | 0.619 | 0.822 | 0.621 | 0.594 | 0.569 | 0.748 |
| NCI-H2085 | 0.851 | 0.939 | 0.972 | 0.879 | 0.781 | 0.45 | 0.383 | 0.545 | 0.398 | 0.778 | 0.806 | 0.762 | 0.673 | 0.881 | 0.962 | 0.854 | 0.961 |
| NCI-H2023 | 0.723 | 0.677 | 0.72 | 0.758 | 0.358 | 0.927 | 0.714 | 0.827 | 0.882 | 0.483 | 0.364 | 0.33 | 0.486 | 0.335 | 0.231 | 0.202 | 0.227 |
| UMC-11 | 1.02 | 1.12 | 1.03 | 0.976 | 1.02 | 1.16 | 0.994 | 1.08 | 1.22 | 0.543 | 0.529 | 0.414 | 0.592 | 0.884 | 0.863 | 0.778 | 0.878 |
| NCI-H23 | 0.562 | 0.481 | 0.28 | 0.376 | 0.32 | 0.212 | – | 0.217 | 0.193 | 0.668 | 0.579 | 0.669 | 0.606 | 0.933 | 0.616 | 0.643 | 0.74 |
| NCI-H1355 | 0.846 | 0.93 | 0.765 | 0.806 | 0.655 | 0.702 | 0.725 | 0.559 | 0.568 | 0.432 | 0.352 | 0.34 | 0.372 | 1.16 | 1.08 | 0.906 | 1.07 |
| NCI-H1734 | 0.853 | 0.794 | 0.804 | 0.759 | 0.496 | 0.201 | 0.16 | 0.2 | 0.19 | 0.684 | 0.595 | 0.621 | 0.739 | 0.421 | 0.389 | 0.442 | 0.466 |
| EPLC-272H | 1.26 | 1.13 | 1.12 | 1.08 | 0.834 | – | 0.176 | 0.328 | 0.191 | – | 0.285 | 0.243 | 0.321 | 0.319 | 0.292 | 0.321 | 0.293 |
| NCI-H2170 | – | – | – | – | – | 0.82 | 0.381 | 0.727 | 1.1 | 0.734 | 0.725 | 0.697 | 0.727 | 0.32 | 0.267 | 0.389 | 0.287 |
| NCI-H522 | – | – | – | – | – | 1.1 | 1.22 | 1.28 | 1.15 | 0.617 | 0.644 | 0.623 | 0.712 | 0.916 | 1.04 | 1.01 | 1.14 |
| NCI-H1648 | – | – | – | – | – | – | – | – | – | 0.297 | 0.237 | – | 0.269 | – | 0.716 | – | 0.683 |
| NCI-H1650 | – | – | – | – | – | 0.238 | 0.214 | 0.187 | 0.173 | 0.567 | 0.612 | 0.504 | 0.757 | 0.426 | 0.369 | 0.342 | 0.396 |
| NCI-H1703 | 0.404 | 0.328 | 0.219 | 0.209 | 0.201 | – | – | – | – | – | – | – | – | – | – | – | – |
| ABC-1 | 0.857 | 0.81 | 0.854 | 0.719 | 0.799 | 0.358 | 0.608 | 1.04 | 0.676 | 0.489 | 0.424 | 0.453 | 0.444 | – | – | – | – |
| Calu-6 | 1.05 | 0.859 | 0.401 | 0.673 | 0.153 | – | – | – | – | – | – | – | – | – | – | – | – |
| HCC-366 | 0.551 | 0.454 | 0.426 | 0.543 | 0.114 | – | – | – | – | 1.23 | 1.1 | 0.955 | 1.62 | 0.18 | – | 0.15 | 0.2 |
| NCI-H1623 | – | – | – | – | – | 0.538 | 0.572 | 0.496 | 0.43 | 0.429 | 0.496 | 0.471 | 0.393 | – | – | – | – |
| A549 | 0.571 | 0.542 | 0.469 | 0.606 | 0.39 | – | – | – | – | – | – | – | – | – | – | – | – |
| NCI-H727 | 0.194 | 0.2 | 0.225 | 0.282 | 0.201 | 0.175 | 0.314 | 0.285 | 0.343 | 0.77 | 0.541 | 0.794 | 0.854 | – | – | – | – |
